≈ marks a conversion by molar mass, not a printed value. Read-outs that look alike come from different tables or passages of the source.
Legend:
T98G cells = test: MTT cytotoxicity assay, glioblastoma T98G; format: cell-based, human; conditions: MTT assay after 24 h of incubation, read-out: IC50 ± SD, T98G
Protocol: (§1) Samples of complexes (about 20 mg) were digested in a concentrated mixture of 36% HCl (1 mL) and 65% HNO3 (6 mL). The contents of Cd (II) in the solid complexes were determined with an F-AAS spectrometer (Analytik Jena, contraAA 300, Jena, Germany) with a continuous source of light and using an air/acetylene flame (Analytik Jena, contraAA 300). Absorbances were measured at the analytical spectral lines at 228.8 nm for Cd (II). The limit of quantification was 0.004 mg/L for Cd (II). The solid samples were decomposed using an Anton Paar Multiwave 3000 (Graz, Austria) closed-system instrument. Mineralization was carried out for 45 min at 240 °C under a pressure of 60 bar. The contents of carbon, hydrogen, and nitrogen were determined with an instrument from Vario Micro Company Elementar Analysensysteme GmbH (Langenselbold, Germany). FTIR spectra were recorded with an IR Tracer-100 Schimadzu Spectrometer (4000–600 cm^−1 with an accuracy of recording of 1 cm^−1, Kyoto, Japan) using KBr pellets. The thermal analyses were carried out with a Netzsch STA 449 F1 Jupiter thermoanalyzer (Netzsch-Geratebau GmbH, Selb, Germany) coupled with a Netzsch Aeolos Quadro QMS 403 mass spectrometer (Netzsch-Geratebau GmbH, Selb, Germany). The samples were heated up to 1000 °C in corundum crucibles with a heating rate of 10 °C/min in an atmosphere of synthetic air (20% O2, 80% N2). The cytotoxic effects of the compounds were evaluated using glioblastoma (T98G), neuroblastoma (SK-N-AS), and lung adenocarcinoma (A549) cell lines and normal human skin fibroblasts (CCD-1059Sk). T98G and SK-N-AS cells were cultured in high-glucose DMEM and A549 cells were cultured in DMEM/F12, while CCD-1059Sk cells were cultured in MEM. All media were supplemented with 10% (FBS), 100 U/mL of penicillin, and […] of streptomycin (PenStrep). Cells were incubated at 37 °C in a humidified atmosphere of 5% CO2. Stock solutions were prepared by dissolving the compounds in sterile dimethyl sulfoxide (DMSO) to obtain a concentration of 50 mg/mL. The cells were seeded into sterile 96-well plates (Nunc) at a density of 1 × 10^5 cells/mL. After 24 h of incubation, the medium was removed from each well, and then the cells were incubated for the next 24 h with different concentrations of the tested compounds (1–100 µg/mL) in their respective media containing 2% FBS. The cytotoxicity of the compounds was evaluated using an MTT assay, which was based on the conversion of 3-(4,5-dimethylthiazol-2-yl)-2,5-diphenyltetrazolium bromide (MTT) into dark-blue formazan crystals. Briefly, after 24 h of incubation of the cells with varying concentrations of the tested compounds, all culture media were removed from the plates. The cells were washed with PBS, and then 100 µL of medium containing 10% MTT solution (5 mg/mL) was added to each well. After 3 h of incubation, 100 µL (per well) of 10% SDS buffer solution was added to solubilize the formazan crystals. After overnight incubation, the absorbance was measured at 570 nm using a microplate reader (Epoch, BioTek Instruments). Experiments were repeated twice, and the measurements in each experiment were run in triplicate. The viability of the investigated cells was expressed as the percentage of the viability of the untreated cells, and the results were transformed into IC50 values (expressed as mean ± SD). The complexes were screened for antibacterial and antifungal activity by using the micro-dilution broth method with Mueller–Hinton broth for the growth of bacteria or Mueller–Hinton broth with 2% glucose for the growth of fungi. […]

SK-N-AS cells = test: MTT cytotoxicity assay, neuroblastoma SK-N-AS; format: cell-based, human; conditions: MTT assay after 24 h of incubation, read-out: IC50 ± SD, SK-N-AS
Protocol: as §1

A549 cells = test: MTT cytotoxicity assay, lung adenocarcinoma A549; format: cell-based, human; conditions: lung carcinoma A549, MTT assay after 24 h of incubation, read-out: IC50 ± SD, A549
Protocol: as §1

CCD-1059Sk cells = test: MTT cytotoxicity assay, normal human skin fibroblasts CCD-1059Sk; format: cell-based; conditions: normal human fibroblasts CCD-1059Sk, MTT assay after 24 h of incubation; read-out: IC50 ± SD, CCD-1059-Sk
Protocol: as §1

S. aureus ATCC 25923 = test: MIC, micro-dilution broth method; format: cell-based, Staphylococcus aureus; conditions: Gram-positive bacteria, micro-dilution broth; for MIC: Staphylococcus aureus, ATCC25923, read-out: MIC, S. aureus ATCC 25923
Protocol: as §1

[1] = system: S. epidermidis ATCC 12228; test: MIC, micro-dilution broth method; format: cell-based, Staphylococcus epidermidis; conditions: Gram-positive bacteria, micro-dilution broth; for MIC: Staphylococcus epidermidis, ATCC12228, read-out: MIC, S. epidermidis ATCC 12228
Protocol: as §1

M. luteus ATCC 10240 = test: MIC, micro-dilution broth method; format: cell-based, Micrococcus luteus; conditions: Gram-positive bacteria, micro-dilution broth; for MIC: Micrococcus luteus, ATCC10240, read-out: MIC, M. luteus ATCC 10240
Protocol: as §1

E. faecalis ATCC 29212 = test: MIC, micro-dilution broth method; format: cell-based, Enterococcus faecalis; conditions: Gram-positive bacteria, micro-dilution broth; for MIC: Enterococcus faecalis, ATCC29212, read-out: MIC, E. faecalis ATCC 29212
Protocol: as §1

B. subtilis ATCC 6633 = test: MIC, micro-dilution broth method; format: cell-based, Bacillus subtilis; conditions: Gram-positive bacteria, micro-dilution broth; for MIC: Bacillus subtilis, ATCC6633, read-out: MIC, B. subtilis ATCC 6633
Protocol: as §1

B. cereus ATCC 10876 = test: MIC, micro-dilution broth method; format: cell-based, Bacillus cereus; conditions: Gram-positive bacteria, micro-dilution broth; for MIC: Bacillus cereus, ATCC10876, read-out: MIC, B. cereus ATCC 10876
Protocol: as §1

[2] = system: S. typhimurium ATCC 14028; test: MIC, micro-dilution broth method; format: cell-based, Salmonella Typhimurium; conditions: Gram-negative bacteria; for MIC: Salmonella enterica
Protocol: as §1

E. coli ATCC 25922 = test: MIC, micro-dilution broth method; format: cell-based, Escherichia coli; conditions: for MIC: Escherichia coli, ATCC25922, Gram-negative bacteria
Protocol: as §1

P. mirabilis ATCC 12453 = test: MIC, micro-dilution broth method; format: cell-based, Proteus mirabilis; conditions: for MIC: Proteus mirabilis, ATCC12453, Gram-negative bacteria
Protocol: as §1

K. pneumoniae ATCC 13883 = test: MIC, micro-dilution broth method; format: cell-based, Klebsiella pneumoniae; conditions: for MIC: Klebsiella pneumoniae, ATCC13883, Gram-negative bacteria
Protocol: as §1

P. aeruginosa ATCC 9027 = test: MIC, micro-dilution broth method; format: cell-based, Pseudomonas aeruginosa; conditions: for MIC: Pseudomonas aeruginosa, ATCC9027, Gram-negative bacteria
Protocol: as §1

C. glabrata ATCC 2091 = test: MIC, micro-dilution broth method; format: cell-based; conditions: for MIC: Nakaseomyces glabratus, ATCC2091, read-out: MIC, C. glabrata ATCC 2091
Protocol: as §1

C. albicans ATCC 102231 = test: MIC, micro-dilution broth method; format: cell-based, Candida albicans; conditions: for MIC: Candida albicans, ATCC102231, read-out: MIC, C. albicans ATCC 102231
Protocol: as §1

[3] = system: C. parapsilosis ATCC 22019; test: MIC, micro-dilution broth method; format: cell-based, Candida parapsilosis; conditions: Yeasts, micro-dilution broth with 2% glucose; for MIC: Lodderomyces parapsilosis, ATCC22019
Protocol: as §1

[4] = Yeasts, micro-dilution broth with 2% glucose

Row | SMILES | IC50 (CCD-1059Sk cells) [µM] | IC50 (T98G cells; Homo sapiens) [µM] | IC50 (SK-N-AS cells; Homo sapiens, SK-N-AS, 24 h) [µM] | IC50 (A549 cells; Homo sapiens) [µM] | MIC (S. aureus ATCC 25923) [µg/mL] | MIC [1] [µg/mL] | MIC (M. luteus ATCC 10240) [µg/mL] | MIC (E. faecalis ATCC 29212) [µg/mL] | MIC (B. subtilis ATCC 6633) [µg/mL] | MIC (B. cereus ATCC 10876) [µg/mL] | MIC [2] [µg/mL] | MIC (E. coli ATCC 25922) [µg/mL] | MIC (P. mirabilis ATCC 12453) [µg/mL] | MIC (K. pneumoniae ATCC 13883) [µg/mL] | MIC (P. aeruginosa ATCC 9027) [µg/mL] | MIC (C. glabrata ATCC 2091) [µg/mL] | MIC (C. albicans ATCC 102231) [µg/mL] | MIC [3] [µg/mL] | other results
1 | Brc1cnc2[nH]c(-c3cccnc3)nc2c1.O.O.[Cl][Cd][Cl] [C4, Cd(L4)Cl2∙2H2O] | 27.7 ± 0.9 | – | – | – | – | – | – | – | – | – | – | – | – | – | – | – | – | – | IC50 (T98G cells): 42.5 ± 0.96 µM; IC50 (SK-N-AS cells): 25.3 ± 1 µM; IC50 (A549 cells): 37.3 ± 2.1 µM; MIC, S. aureus ATCC 25923 (S. aureus ATCC 25923): 1000 µg/mL; MIC, S. epidermidis ATCC 12228 [1]: 250 µg/mL; MIC, M. luteus ATCC 10240 (M. luteus ATCC 10240): 7.8 µg/mL; MIC, E. faecalis ATCC 29212 (E. faecalis ATCC 29212): 250 µg/mL; MIC, B. subtilis ATCC 6633 (B. subtilis ATCC 6633): 7.8 µg/mL; MIC, B. cereus ATCC 10876 (B. cereus ATCC 10876): 250 µg/mL; MIC, S. typhimurium ATCC 14028 [2]: 1000 µg/mL; MIC, E. coli ATCC 25922 (E. coli ATCC 25922; Gram-negative bacteria): 500 µg/mL; MIC, P. mirabilis ATCC 12453 (P. mirabilis ATCC 12453; Gram-negative bacteria): 1000 µg/mL; MIC, K. pneumoniae ATCC 13883 (K. pneumoniae ATCC 13883; Gram-negative bacteria): 1000 µg/mL; MIC, P. aeruginosa ATCC 9027 (P. aeruginosa ATCC 9027; Gram-negative bacteria): >1000 µg/mL; MIC, C. glabrata ATCC 2091 (C. glabrata ATCC 2091; [4]): 31.3 µg/mL; MIC, C. albicans ATCC 102231 (C. albicans ATCC 102231; [4]): 125 µg/mL; MIC, C. parapsilosis ATCC 22019 [3]: 7.8 µg/mL
2 | c1cnc2[nH]c(-c3ccncc3)nc2c1 [L2] | > 509 | 178 ± 7.3 | 415 ± 17 | 220 ± 11 | 1000 (≈ 5.1 mM) | 1000 (≈ 5.1 mM) | 250 (≈ 1.27 mM) | 1000 (≈ 5.1 mM) | 500 (≈ 2.55 mM) | 250 (≈ 1.27 mM) | 1000 (≈ 5.1 mM) | 1000 (≈ 5.1 mM) | 1000 (≈ 5.1 mM) | > 1000 | > 1000 | > 1000 | 1000 (≈ 5.1 mM) | > 1000 | –
3 | c1cc(-c2nc3ccncc3[nH]2)ccn1 [L1] | > 509 | 210 ± 12 | > 509 | > 509 | > 1000 | > 1000 | 500 (≈ 2.55 mM) | > 1000 | > 1000 | > 1000 | > 1000 | > 1000 | > 1000 | > 1000 | > 1000 | > 1000 | > 1000 | > 1000 | –
4 | c1cncc(-c2nc3cccnc3[nH]2)c1 [L3] | > 509 | > 509 | > 509 | > 509 | > 1000 | > 1000 | 500 (≈ 2.55 mM) | > 1000 | 1000 (≈ 5.1 mM) | 1000 (≈ 5.1 mM) | > 1000 | > 1000 | > 1000 | > 1000 | > 1000 | > 1000 | > 1000 | 1000 (≈ 5.1 mM) | –

Reference: publication PMC9412362, “Design, Synthesis, and Characterization of Novel Coordination Compounds of Benzimidazole Derivatives with Cadmium” (Pharmaceutics, 2022)
